These are literature values, as cited in US20050150424A1, “Ink composition and inkjet recording method” (FUJI PHOTO FILM CO., LTD., priority 2003, published 2005).

A word on the pKa: it is the negative logarithm of the acid dissociation constant.

The conditions of this series: in water at 25° C.

Where two headings read alike, the source gives them in different places.

Consider `CCCCC(CC)C(=O)O` (centres unmarked) [2-Ethylhexanoic acid], for which the pKa (Table 4) was 2-Ethylhexanoic acid (pKa: 4.1).
For `C=C(C)C(=O)OCCOC(=O)c1ccccc1C(=O)O` [2-methacryloyloxyethyl phthalate], the pKa is recorded as 4.0.
Turning to `C=C(C)C(=O)O` [methacrylic acid], the pKa is given as 3.6.
For the compound `C=C(C)C(=O)OCCOP(=O)(O)O` [ethylene glycol methacrylate phosphate], the pKa is 2.5.
Regarding `C=CC(=O)O` [acrylic acid], the pKa is 3.6.
